The values that follow come from patent US20240400591A1 (Jacobio Pharmaceuticals Co., Ltd., priority 2021, published 2024).

Structures are written as SMILES.

The target of the test is T1, His-p53 Y220C (94-294) protein (Homo sapiens, UniProt P04637, Y220C).
T1 construct: His-p53 Y220C (94-294) protein
As to the kind of experiment: In vitro DNA binding assay (HTRF). As to conditions: % activation normalized to 2 μM Ref-1a high control. The format is biochemical.
`COc1cc2c(cc1NCC#Cc1sc3c(N[C@@H]4CCN(C)C[C@@H]4F)cccc3c1CC(F)(F)F)CNS2(=O)=O` (racemic) [Example 77, 5-((3-(7-(((Z)-3-fluoro-1-methylpiperidin-4-yl)amino)-3-(2,2,2-trifluoroethyl)benzo[b]thiophen-2-yl)prop-2-yn-1-yl)amino)-6-methoxy-2,3-dihydrobenzo[d]isothiazole 1,1-dioxide] came in with an EC50 of 0.904 µM. Regarding `COc1cc(P(C)(C)=O)ccc1NCC#Cc1sc2c(NCC34CCCN3CCC4)cccc2c1CC(F)(F)F` [Example 54, (3-methoxy-4-((3-(7-(((tetrahydro-1H-pyrrolizin-7a(5H)-yl)methyl)amino)-3-(2,2,2-trifluoroethyl)benzo[b]thiophen-2-yl)prop-2-yn-1-yl)amino)phenyl)dimethylphosphine oxide], the EC50 stood at 0.224 µM.

Compound `CSc1c(NCC#Cc2sc3c(N[C@@H]4CCN(C)C[C@@H]4F)cccc3c2CC(F)(F)F)ccc(P(C)(C)=O)c1F` [Example 221, (2-fluoro-4-((3-(7-(((3S,4R)-3-fluoro-1-methylpiperidin-4-yl)amino)-3-(2,2,2-trifluoroethyl)benzo[b]thiophen-2-yl)prop-2-yn-1-yl)amino)-3-(methylthio)phenyl)dimethylphosphine oxide] showed an EC50 of 0.169 µM. The result for `CN1CC[C@@H](Nc2cccc3c(CC(F)(F)F)c(C#CCNc4ccc(P(C)(C)=O)nc4C#N)sc23)[C@@H](F)C1` [Example 224, 6-(dimethylphosphoryl)-3-((3-(7-(((3S,4R)-3-fluoro-1-methylpiperidin-4-yl)amino)-3-(2,2,2-trifluoroethyl)benzo[b]thiophen-2-yl)prop-2-yn-1-yl)amino)picolinonitrile] reads 0.087 µM; that for `COc1cc(P(C)(C)=O)cc(F)c1NCC#Cc1sc2c(N[C@@H]3CCN(C)C[C@@H]3F)cccc2c1CC(F)(F)F` [Example 206, (3-fluoro-4-((3-(7-(((3S,4R)-3-fluoro-1-methylpiperidin-4-yl)amino)-3-(2,2,2-trifluoroethyl)benzo[b]thiophen-2-yl)prop-2-yn-1-yl)amino)-5-methoxyphenyl)dimethylphosphine oxide], 0.205 µM. The result for `CNC(=O)c1ccc(NCC#Cc2sc3c(N[C@@H]4CCN(C)C[C@@H]4F)cccc3c2CC(F)(F)F)c(C#N)c1` (racemic) [Example 95, 3-cyano-4-((3-(7-(((Z)-3-fluoro-1-methylpiperidin-4-yl)amino)-3-(2,2,2-trifluoroethyl)benzo[b]thiophen-2-yl)prop-2-yn-1-yl)amino)-N-methylbenzamide] reads 0.133 µM; that for `CCc1c(C#CCNc2ccc(S(N)(=O)=O)cc2)sc2c(NC3CCN(C)CC3)cccc12` [Example 1, 4-((3-(3-ethyl-7-((1-methylpiperidin-4-yl)amino)benzo[b]thiophen-2-yl)prop-2-yn-1-yl)amino)benzenesulfonamide], 0.345 µM. `COCCCN1CCC(Nc2cccc3c(CC(F)(F)F)c(C#CCNc4ccc(S(C)(=O)=O)cc4OC)sc23)CC1` [Example 20, N-[2-[3-(2-methoxy-4-methylsulfonyl-anilino)prop-1-ynyl]-3-(2,2,2-trifluoroethyl)benzothiophen-7-yl]-1-(3-methoxypropyl)piperidin-4-amine] displayed an EC50 of 0.188 µM.

With `COc1cc(S(C)(=O)=O)ccc1NCC#Cc1sc2c(NC3CC4CC3CN4)cccc2c1CC(F)(F)F` (stereo not drawn) [Example 28, N-(2-(3-((2-methoxy-4-(methylsulfonyl)phenyl)amino)prop-1-yn-1-yl)-3-(2,2,2-trifluoroethyl)benzo[b]thiophen-7-yl)-2-azabicyclo[2.2.1]heptan-5-amine], the EC50 came to 0.284 µM. To `COc1cc(P(C)(C)=O)ccc1NCC#Cc1sc2c(N[C@H]3CCN(C)C[C@H]3Cl)cccc2c1CC(F)(F)F` [Example 144, (3R,4S)-3-chloro-N-[2-[3-(4-dimethylphosphoryl-2-methoxy-anilino)prop-1-ynyl]-3-(2,2,2-trifluoroethyl)benzothiophen-7-yl]-1-methyl-piperidin-4-amine] belongs 0.102 µM; to `COc1cc(NCC#Cc2sc3c(NC4CCN(C)CC4F)cccc3c2CC(F)(F)F)ccc1P(C)(C)=O` (stereo not drawn) [Example 151, (4-((3-(7-(((Z)-3-fluoro-1-methylpiperidin-4-yl)amino)-3-(2,2,2-trifluoroethyl)benzo[b]thiophen-2-yl)prop-2-yn-1-yl)amino)-2-methoxyphenyl)dimethylphosphine oxide], 0.06 µM.

On to `COc1cc(P(C)(C)=O)ccc1NCC#Cc1sc2c(NC[C@@]34CCCN3C[C@H](F)C4)cccc2c1CC(F)(F)F` [Example 70, (4-((3-(7-((((2R,7aS)-2-fluorotetrahydro-1H-pyrrolizin-7a(5H)-yl)methyl)amino)-3-(2,2,2-trifluoroethyl)benzo[b]thiophen-2-yl)prop-2-yn-1-yl)amino)-3-methoxyphenyl)dimethylphosphine oxide], for which the EC50 was 0.229 µM. This EC50 lies about 3.8-fold higher than the previous one. To `COc1cc(S(=O)(=O)NCC(O)CO)ccc1NCC#Cc1sc2c(NC3CCN(C)CC3)cccc2c1CC(F)(F)F` (stereo not drawn) [Example 24, N-(2,3-dihydroxypropyl)-3-methoxy-4-((3-(7-((1-methylpiperidin-4-yl)amino)-3-(2,2,2-trifluoroethyl)benzo[b]thiophen-2-yl)prop-2-yn-1-yl)amino)benzenesulfonamide] belongs 0.056 µM.

In turn, `CN1CC[C@H](Nc2cccc3c(CC(F)(F)F)c(C#CCNc4ccc(S(N)(=O)=O)cc4)sc23)[C@H](F)C1` (racemic) [Example 5, 4-((3-(7-(((3R,4S)-3-fluoro-1-methylpiperidin-4-yl)amino)-3-(2,2,2-trifluoroethyl)benzo[b]thiophen-2-yl)prop-2-yn-1-yl)amino)benzenesulfonamide] came in with an EC50 of 0.032 µM. This EC50 is about 1.8-fold lower than that of the compound before. The result for `COc1cc(C(=O)N2CCN(C)CC2)ccc1NCC#Cc1sc2c(NC3CCN(C)CC3F)cccc2c1CC(F)(F)F` (stereo not drawn) [Example 49, (4-((3-(7-(((Z)-3-fluoro-1-methylpiperidin-4-yl)amino)-3-(2,2,2-trifluoroethyl)benzo[b]thiophen-2-yl)prop-2-yn-1-yl)amino)-3-methoxyphenyl)(4-methylpiperazin-1-yl)methanone] reads 0.038 µM; that for `COc1nc(P(C)(C)=O)cnc1NCC#Cc1sc2c(N[C@@H]3CCN(C)C[C@@H]3F)cccc2c1CC(F)(F)F` [Example 209, (5-((3-(7-(((3S,4R)-3-fluoro-1-methylpiperidin-4-yl)amino)-3-(2,2,2-trifluoroethyl)benzo[b]thiophen-2-yl)prop-2-yn-1-yl)amino)-6-methoxypyrazin-2-yl)dimethylphosphine oxide], 0.211 µM. Consider `CCN1CC[C@@H](Nc2cccc3c(CC(F)(F)F)c(C#CCNc4ccc(P(C)(C)=O)cc4OC)sc23)[C@@H](F)C1` (racemic) [Example 100, (4-((3-(7-(((Z)-1-ethyl-3-fluoropiperidin-4-yl)amino)-3-(2,2,2-trifluoroethyl)benzo[b]thiophen-2-yl)prop-2-yn-1-yl)amino)-3-methoxyphenyl)dimethylphosphine oxide], for which the EC50 is 0.04 µM. To `COc1cc(P(C)(C)=O)ccc1NCC#Cc1sc2c(N[C@H]3CCN(C)C[C@@H]3F)cccc2c1-c1ccc(F)cc1` (racemic) [Example 139, (4-((3-(7-(((E)-3-fluoro-1-methylpiperidin-4-yl)amino)-3-(4-fluorophenyl)benzo[b]thiophen-2-yl)prop-2-yn-1-yl)amino)-3-methoxyphenyl)dimethylphosphine oxide] belongs 1.22 µM. For `COc1cc(S(C)(=O)=O)ccc1NCC#Cc1sc2c(NC3CC4CCC(C3)N4C)cccc2c1CC(F)(F)F` (stereo not drawn) [Example 26, N-(2-(3-((2-methoxy-4-(methylsulfonyl)phenyl)amino)prop-1-yn-1-yl)-3-(2,2,2-trifluoroethyl)benzo[b]thiophen-7-yl)-8-methyl-8-azabicyclo[3.2.1]octan-3-amine], it took 0.169 µM to reach a half-maximal effect (EC50). This EC50 lies about 7.2-fold lower than the previous one. The result for `COc1cc(S(=O)(=O)N2CCOCC2)ccc1NCC#Cc1sc2c(NC3CCN(C)CC3)cccc2c1CC(F)(F)F` [Example 22, N-(2-(3-((2-methoxy-4-(morpholinosulfonyl)phenyl)amino)prop-1-yn-1-yl)-3-(2,2,2-trifluoroethyl)benzo[b]thiophen-7-yl)-1-methylpiperidin-4-amine] reads 0.288 µM. To `CN1CCC(Nc2cccc3c(CC(F)(F)F)c(C#CCNc4ccc(S(C)(=O)=O)c5cc[nH]c45)sc23)CC1` [Example 31, N-(3-(7-((1-methylpiperidin-4-yl)amino)-3-(2,2,2-trifluoroethyl)benzo[b]thiophen-2-yl)prop-2-yn-1-yl)-4-(methylsulfonyl)-1H-indol-7-amine] belongs 0.535 µM; to `COc1cc(P(C)(C)=O)ccc1NCC#Cc1sc2c(N[C@@H]3CCN(C4CCS(=O)(=O)CC4)C[C@@H]3F)cccc2c1CC(F)(F)F` (relative stereo) [Example 93, (Z)—N-[2-[3-(4-dimethylphosphoryl-2-methoxy-anilino)prop-1-ynyl]-3-(2,2,2-trifluoroethyl)benzothiophen-7-yl]-1-(1,1-dioxothian-4-yl)-3-fluoro-piperidin-4-amine], 0.151 µM. To `COc1cc(S(C)(=O)=O)ccc1NCC#Cc1sc2c(N[C@H]3CC[C@H](N4CC5(CCOCC5)C4)CC3)cccc2c1CC(F)(F)F` [Example 18, Trans-N-(4-(7-oxa-2-azaspiro[3.5]nonan-2-yl)cyclohexyl)-2-(3-((2-methoxy-4-(methylsulfonyl)phenyl)amino)prop-1-yn-1-yl)-3-(2,2,2-trifluoroethyl)benzo[b]thiophen-7-amine] belongs 0.173 µM; to `COc1cc(P(C)(C)=O)ccc1NCC#Cc1sc2c(NC3CCN(C)CC3(F)F)cccc2c1CC(F)(F)F` (stereo not drawn) [Example 43, (4-((3-(7-((3,3-difluoro-1-methylpiperidin-4-yl)amino)-3-(2,2,2-trifluoroethyl)benzo[b]thiophen-2-yl)prop-2-yn-1-yl)amino)-3-methoxyphenyl)dimethylphosphine oxide], 0.39 µM.
